Where two headings read alike, the source gives them in different places.
What was measured:
Format in all cases: cell-based
[1] = test system: BxPC3, carcinoma of pancreas; test: Cell growth inhibition, BxPC3 cells; conditions: Homo sapiens, read-out: IC50, BxPC3, pancreas
[2] = test system: HT-29 human colon adenocarcinoma; test: Cell growth inhibition, HT-29 cells
JB6c141 rat skin cells = test: Colony Formation Assay (soft agar assay for colony formation); conditions: 100 micromolar, 14 days, with or without epidermal growth factor
Text: The Colony Formation Assay, also known as “soft agar assay for colony formation” as described by David Bowtell (accessed on the Internet as recently as on Dec. 29, 2003 at http://grimwade.biochem.unimelb.edu.au/bowtell/cellbiol/sect71.htm) was also used to asses the neoplastic cell growth inhibitory effect of these compounds and using the JB6c141 rat skin cells. Briefly, and following the plating of cells in the presence or absence of epidermal growth factor and in each case, in the presence or absence of the test compound, they were incubated at […] in a humidified incubator for 14 days, when plates were stained 0.005% Crystal Violet for >1 hour, colonies were counted using a dissecting microscope.

[3] = HT-29, 24 hr, read-out: IC50, HT-29, colon
[4] = HT-29, 24 h, read-out: IC50, HT-29, colon

IC50 ([1]; BXPC-3, 24 hr)	IC50 [2, 3]	SMILES	IC50 [2, 4]	also measured
> 500 µM	> 500 µM	CC(=O)Oc1ccccc1C(=O)Oc1ccc(CO)cc1 [2-(acetyloxy)benzoic acid 4-(hydroxymethyl)phenyl ester]	–	–
> 1000 µM	> 1000 µM	CC(=O)Oc1ccccc1C(=O)O [Aspirin, reference compound]	–	–
–	> 500 µM	O=C(/C=C/c1ccc(O)c(O)c1)Oc1ccc(CO)cc1 [Caffeic acid 4-(hydroxymethyl)phenyl ester]	–	–
> 1000 µM	> 1000 µM	O=C(O)/C=C/c1ccc(O)c(O)c1 [Caffeic acid, reference compound]	–	–
–	150 ± 12 µM	O=C(C=Cc1ccccc1)Oc1ccc(CO)cc1 [Cinnamic acid 4-(hydroxymethyl)phenyl ester]	–	–
–	–	CC(C(=O)Oc1ccc(COc2ccc([N+](=O)[O-])cc2[N+](=O)[O-])cc1)c1ccc(-c2ccccc2)c(F)c1 (stereo not drawn) [Compound 1]	–	colony formation (JB6c141 rat skin cells): abolished colony formation; IC50 ([2]; HT-29, 48 h): ~73 µM
–	–	CC(=O)Oc1ccccc1C(=O)Nc1ccc(CCl)cc1 [Compound 26, 2-(acetyloxy)benzoic acid 4-(chloromethyl)phenyl amide]	12 ± 3 µM	–
–	–	CC(=O)Oc1ccccc1C(=O)Nc1ccc(CBr)cc1 [Compound 29, 2-(acetyloxy)benzoic acid 4-(bromomethyl)phenyl amide]	7 ± 2 µM	IC50 ([1]; BXPC-3, 24 h): 18 ± 3 µM
–	–	O=C(/C=C/c1ccc(O)c(O)c1)Oc1ccc(CO[N+](=O)[O-])cc1 [Compound 41, caffeic acid 4-(nitrooxymethyl)phenyl ester]	~0.5 µM	–
–	–	O=C(/C=C/c1ccc(O)c(O)c1)Oc1ccc(CCl)cc1 [Compound 47, caffeic acid 4-(chloromethyl)phenyl ester]	0.25 µM	–

Reference: patent publication US7585997B2, “Compounds and compositions for treating dysproliferative diseases, and methods of use thereof” (Chesterford Enterprises Limited, priority 2003, dated 2009)
